Laboratory results reported in the supplement of paper PMC5908809.

How the values were obtained:
[1] = system: normal NK cells expanded with K562-aAPC; assay: percent inhibition of viability; higher = more inhibition; conditions: 72 h, IL-2 2.5 ng/mL
Method: (§1)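 Drug sensitivity and resistance testing on K562-aAPC-expanded normal NK cells: 5 concentrations (10-fold steps over a 10,000-fold range), 72 h at 37 °C, viability by CellTiter-Glo normalised to DMSO and benzethonium chloride controls; DSS from the fitted curve.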

[2] = system: DERL-7 (IL-2 2.5 ng/mL); assay: as above; conditions: 72 h
[3] = system: IMC-1 (IL-2 20 ng/mL); assay: as above; conditions: 72 h
[4] = system: KAI3 (IL-2 2.5 ng/mL); assay: as above; conditions: 72 h
[5] = system: KHYG-1 (IL-2 2.5 ng/mL); assay: as above; conditions: 72 h
[6] = system: NK-92 (IL-2 2.5 ng/mL); assay: as above; conditions: 72 h
[7] = system: NK-YS (IL-2 2.5 ng/mL); assay: as above; conditions: 72 h
[8] = system: NKL (IL-2 2.5 ng/mL); assay: as above; conditions: 72 h
[9] = system: SNK-6 (IL-2 2.5 ng/mL); assay: as above; conditions: 72 h
[10] = system: YT (IL-2 2.5 ng/mL); assay: as above; conditions: 72 h
[11] = system: normal primary NK cells, pool 1 (3 donors) (IL-2 2.5 ng/mL); assay: as above; conditions: 72 h
[12] = system: normal primary NK cells, pool 1 (3 donors), resting (IL-2 0 ng/mL); assay: as above; conditions: 72 h
[13] = system: normal primary NK cells, pool 2 (3 donors) (IL-2 2.5 ng/mL); assay: as above; conditions: 72 h
[14] = system: normal primary NK cells, pool 3 (3 donors) (IL-2 2.5 ng/mL); assay: as above; conditions: 72 h
[15] = system: normal NK cells expanded with K562-aAPC; assay: drug sensitivity score (DSS) (DSS units); higher = more sensitive; extreme values may be limits of the assay; conditions: 72 h; IL-2 2.5 ng/mL
Method: as §1

[16] = system: DERL-7 (IL-2 2.5 ng/mL); assay: as above; conditions: 72 h
[17] = system: IMC-1 (IL-2 20 ng/mL); assay: as above; conditions: 72 h
[18] = system: KAI3 (IL-2 2.5 ng/mL); assay: as above; conditions: 72 h
[19] = system: KHYG-1 (IL-2 2.5 ng/mL); assay: as above; conditions: 72 h
[20] = system: NK-92 (IL-2 2.5 ng/mL); assay: as above; conditions: 72 h
[21] = system: NK-YS (IL-2 2.5 ng/mL); assay: as above; conditions: 72 h
[22] = system: NKL (IL-2 2.5 ng/mL); assay: as above; conditions: 72 h
[23] = system: SNK-6 (IL-2 2.5 ng/mL); assay: as above; conditions: 72 h
[24] = system: YT (IL-2 2.5 ng/mL); assay: as above; conditions: 72 h
[25] = system: normal primary NK cells, pool 1 (3 donors) (IL-2 2.5 ng/mL); assay: as above; conditions: 72 h
[26] = system: normal primary NK cells, pool 1 (3 donors), resting (IL-2 0 ng/mL); assay: as above; conditions: 72 h
[27] = system: normal primary NK cells, pool 2 (3 donors) (IL-2 2.5 ng/mL); assay: as above; conditions: 72 h
[28] = system: normal primary NK cells, pool 3 (3 donors) (IL-2 2.5 ng/mL); assay: as above; conditions: 72 h

O=c1[nH]cc(F)c(=O)[nH]1 [Fluorouracil] (max concentration tested 10000 nM)
percent inhibition of viability [%]
Conditions | 1 nM | 10 nM | 100 nM | 1000 nM | 10000 nM
[1] | -6.1 | -8.86 | -5.42 | 2.62 | 38.1
[2] | -1.71 | -2.2 | -3.46 | 5.05 | 60.8
[3] | -7.45 | 1.88 | -3.48 | 4.56 | 12.9
[4] | -0.14 | 3.84 | 8.25 | 42.8 | 49.3
[5] | -4.58 | -7.58 | -3.77 | 12.7 | 86.4
[6] | -11.2 | 1.29 | 5.09 | 42.9 | 60
[7] | -1.75 | 0.12 | 4.17 | 40.3 | 84
[8] | -15.3 | -7.36 | -0.39 | 28.1 | 74.8
[9] | -7.99 | -14.1 | -22.8 | 34.2 | 86.7
[10] | -7.37 | -4.14 | -1.13 | 39.8 | 64
[11] | -1.01 | 15.2 | 8.55 | 0.37 | 11.4
[12] | 2.96 | 13.7 | 16.1 | 21.9 | 19
[13] | 1.43 | 2.09 | 10.1 | 5 | 7.54
[14] | -3.48 | 2.62 | 7.34 | 0.65 | 7.07

Conditions | drug sensitivity score
[15] | 2.24
[16] | 4.1
[17] | 0.36
[18] | 8.77
[19] | 6.91
[20] | 8.76
[21] | 9.4
[22] | 8.01
[23] | 9.4
[24] | 8.28
[25] | 0
[26] | 5.42
[27] | 0
[28] | 0

CCCCC(=O)OCC(=O)[C@]1(O)Cc2c(O)c3c(c(O)c2[C@@H](O[C@H]2C[C@H](NC(=O)C(F)(F)F)[C@H](O)[C@H](C)O2)C1)C(=O)c1c(OC)cccc1C3=O [Valrubicin] (max concentration tested 5000 nM)
percent inhibition of viability [%]
Conditions | 0.5 nM | 5 nM | 50 nM | 500 nM | 5000 nM
[1] | -4.09 | -1.21 | 4.69 | 55.8 | 101
[2] | 1.97 | -4.8 | 35.6 | 99.1 | 101
[3] | -8.69 | 1.1 | 16.2 | 99.5 | 101
[4] | -21.3 | -1.05 | 42.1 | 62.3 | 85.2
[5] | -6.36 | 1.91 | 9.03 | 89.6 | 109
[6] | -14.1 | -10.7 | 10 | 89.7 | 105
[7] | -5.71 | 4.57 | 40.3 | 86.6 | 101
[8] | -11.4 | 33.3 | 101 | 105 | 109
[9] | 10.3 | 28.7 | 23 | 89.2 | 86
[10] | -0.05 | 4.95 | 0.64 | 87.1 | 109
[11] | 2.9 | -5.69 | 4.41 | 76 | 97.4
[12] | -3.66 | -27.1 | -0.41 | 88.2 | 92.3
[13] | -13.8 | -9.19 | 12.8 | 67.3 | 95.2
[14] | -11.9 | -6.83 | 15.7 | 53.2 | 98.4

Conditions | drug sensitivity score
[15] | 12.2
[16] | 22.9
[17] | 20.7
[18] | 17.4
[19] | 17.5
[20] | 17.7
[21] | 21
[22] | 35.2
[23] | 18.6
[24] | 15.8
[25] | 14.7
[26] | 16.1
[27] | 14.2
[28] | 12.3

O=C(Nc1cccc(C(F)(F)F)c1)Nc1cc(S(=O)(=O)NC2CC2)ccc1-c1ccsc1 [AGI-6780] (max concentration tested 10000 nM)
percent inhibition of viability [%]
Conditions | 1 nM | 10 nM | 100 nM | 1000 nM | 10000 nM
[1] | -7.15 | -5.5 | -5.48 | -5.66 | 6.74
[2] | 2.8 | 2.88 | 5.06 | 7.2 | 42.2
[3] | -3.83 | -6.4 | -1.13 | -1.96 | 12.3
[4] | 7.81 | -7.37 | -5.02 | -1.47 | 24.4
[5] | 0.2 | -3.96 | -1.95 | 2.69 | 43.5
[6] | -7.9 | -10.9 | -5.67 | 20.1 | 65.8
[7] | -0.22 | 0.5 | -0.98 | 2.65 | 23.1
[8] | -8.69 | -12.6 | -8.03 | -5.7 | 20.2
[9] | -7.22 | 11.7 | 2.33 | 11.1 | 32.3
[10] | -2.18 | -6.24 | -5.3 | 5.28 | 46.9
[11] | -6.68 | -2.93 | 8.08 | 7.42 | 23.6
[12] | 2.29 | 1.29 | 13 | 17.2 | 44.5
[13] | -16 | -3.85 | -3.48 | 9.29 | 20.2
[14] | -11.5 | -1.88 | -0.35 | 8.79 | 8.51

Conditions | drug sensitivity score
[15] | 0
[16] | 3.34
[17] | 0.03
[18] | 0.81
[19] | 2.61
[20] | 6.57
[21] | 1.21
[22] | 0.4
[23] | 2.72
[24] | 3.31
[25] | 1.25
[26] | 4.5
[27] | 1.59
[28] | 0

Nc1nc(Cl)nc2c1ncn2[C@H]1C[C@H](O)[C@@H](CO)O1 [Cladribine] (max concentration tested 1000 nM)
percent inhibition of viability [%]
Conditions | 0.1 nM | 1 nM | 10 nM | 100 nM | 1000 nM
[1] | -1.61 | -1.55 | 30.3 | 100 | 100
[2] | -4.72 | -1.74 | 2.44 | 83.3 | 100
[3] | -1.93 | -4.54 | -8.55 | 59.4 | 99.9
[4] | -17.3 | -11.1 | -4.18 | 61.5 | 92.2
[5] | -2.1 | -6.64 | 0.12 | 102 | 99.4
[6] | -7.06 | -4.86 | 2.88 | 92.3 | 97.7
[7] | -8.76 | -10.6 | -9.2 | 7.65 | 88.2
[8] | -13.2 | -8.81 | -9.87 | 104 | 98.6
[9] | 11.6 | 5.52 | 8.41 | 66.9 | 91.5
[10] | -4 | -5.35 | -6.95 | 5.62 | 56.9
[11] | -5.25 | -7.26 | 23.2 | 93.1 | 96.5
[12] | -18.2 | -14.8 | 62 | 90.2 | 90
[13] | -13.2 | -12.7 | 24.4 | 90.6 | 93.7
[14] | -12.6 | -10.5 | 18.2 | 87.7 | 97

Conditions | drug sensitivity score
[15] | 22.4
[16] | 15.4
[17] | 12.5
[18] | 12.2
[19] | 18.2
[20] | 17.1
[21] | 6.1
[22] | 17.6
[23] | 13.8
[24] | 3.98
[25] | 20.3
[26] | 23.5
[27] | 20.3
[28] | 18.4

Nc1ncn([C@@H]2O[C@H](CO)[C@@H](O)[C@H]2O)c(=O)n1 [Azacitidine] (max concentration tested 10000 nM)
percent inhibition of viability [%]
Conditions | 1 nM | 10 nM | 100 nM | 1000 nM | 10000 nM
[1] | -4.42 | -10.9 | -6.84 | 4.72 | 60.3
[2] | 2.03 | 3.15 | 2.51 | 24.5 | 85.6
[3] | -6.44 | -3.39 | 2.53 | -7.92 | 82.7
[4] | -2.09 | -1.87 | 2.62 | 26.2 | 60.5
[5] | -4.59 | -3.23 | 2.46 | 23.2 | 89.6
[6] | -4.17 | -12.4 | -0.66 | 23.1 | 83.7
[7] | -2.67 | -1.33 | 3.5 | 15.9 | 67.6
[8] | -16.7 | -17.1 | -14.1 | -11.2 | 65.5
[9] | -3.1 | 1 | 15.7 | 47.1 | 67.8
[10] | -1.86 | -3.15 | -1.98 | -0.51 | 28
[11] | -2.2 | -10.3 | 1.35 | 9.04 | 30.6
[12] | -3.24 | -12.3 | 5.31 | 4.81 | 27.4
[13] | -6.68 | -8.85 | -5.14 | -3.32 | 29.2
[14] | -6.45 | -3.68 | -2.24 | -3.82 | 25.5

Conditions | drug sensitivity score
[15] | 4
[16] | 8.4
[17] | 4.03
[18] | 6.42
[19] | 8.51
[20] | 8.11
[21] | 6.22
[22] | 2.92
[23] | 10.7
[24] | 1.12
[25] | 2.65
[26] | 1.88
[27] | 1.04
[28] | 0.77
